# Laboratory results as given in paper PMC6201908, “Affinity, potency, efficacy, and selectivity of neurokinin A analogs at human recombinant NK2 and NK1 receptors” (PLoS ONE, 2018).
# Like-named read-outs stand apart in the source and are kept apart here. Non-standard residues stand in square brackets, D forms with d. Residues, ends and D or L forms follow the SMILES beside them. No end group written: not given here. NMeL = CN[C@@H](CC(C)C)C(=O)O; βAla = NCCC(=O)O
# T1: human recombinant NK2 receptors (Homo sapiens, UniProt P21452)
# T1 sequence (P21452 1-398): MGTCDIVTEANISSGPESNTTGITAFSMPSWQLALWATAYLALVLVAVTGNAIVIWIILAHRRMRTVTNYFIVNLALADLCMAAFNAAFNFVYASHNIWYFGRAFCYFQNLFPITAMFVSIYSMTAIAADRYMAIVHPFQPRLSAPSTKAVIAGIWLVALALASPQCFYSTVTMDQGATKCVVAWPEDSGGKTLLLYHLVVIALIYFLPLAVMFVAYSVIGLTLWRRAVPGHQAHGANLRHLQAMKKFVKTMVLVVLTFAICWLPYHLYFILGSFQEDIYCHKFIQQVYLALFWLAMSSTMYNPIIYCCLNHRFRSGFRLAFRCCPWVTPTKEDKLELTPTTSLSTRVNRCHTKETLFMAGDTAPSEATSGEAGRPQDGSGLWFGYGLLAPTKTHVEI
# T2: NK2 receptor (Homo sapiens, UniProt P21452)
# T2 chain: T1 sequence (P21452 1-398)
# T3: NK1 receptor (Homo sapiens, UniProt P25103)
# T3 chain: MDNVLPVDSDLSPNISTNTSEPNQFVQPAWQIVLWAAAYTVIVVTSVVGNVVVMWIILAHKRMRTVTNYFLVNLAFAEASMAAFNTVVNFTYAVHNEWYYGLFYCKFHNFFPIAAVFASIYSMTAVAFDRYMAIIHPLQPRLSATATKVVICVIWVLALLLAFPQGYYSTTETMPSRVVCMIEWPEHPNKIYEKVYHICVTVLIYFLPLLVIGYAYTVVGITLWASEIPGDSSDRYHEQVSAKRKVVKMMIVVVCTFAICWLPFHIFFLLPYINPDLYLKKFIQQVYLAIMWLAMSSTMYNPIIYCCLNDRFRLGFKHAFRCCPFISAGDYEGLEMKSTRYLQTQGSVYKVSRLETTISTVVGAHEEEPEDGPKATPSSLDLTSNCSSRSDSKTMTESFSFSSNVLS
# B1: NKA(4-10) (peptide)
# chain: DSFVGLM-NH2
# B2: [Arg5,MeLeu9]-NKA(4-10) (peptide)
# chain: DRFVG[NMeL]M-NH2
# modifications: N-terminus assumed
# SMILES: CSCC[C@H](NC(=O)[C@H](CC(C)C)N(C)C(=O)CNC(=O)[C@@H](NC(=O)[C@H](Cc1ccccc1)NC(=O)[C@H](CCCNC(=N)N)NC(=O)[C@@H](N)CC(=O)O)C(C)C)C(N)=O
# B3: [Arg5]-NKA(4-10) (peptide)
# chain: DRFVGLM-NH2
# B4: [Lys5,MeLeu9]-NKA(4-10) (peptide)
# chain: DKFVG[NMeL]M-NH2
# Key:
# [1] = biological target: T4, human recombinant NK1 receptors (Homo sapiens, UniProt P25103); assay: cell-based; assay type: cell-based
# Experimental: (§1) CHO-hNK2 and CHO-hNK1 cells were transiently transfected with a CRE-LUC reporter construct using Lipofectamine 2000. At 24 h post-transfection, cells were plated at a density of 20,000 cells/well in a 96-well culture plate. […] Luciferase expression was measured after 5 h of incubation at 37°C (in the presence of 5% CO2) by adding Firefly Luciferase reagent, followed by Renilla Luciferase reagent. Luminescence was measured by using an Envision Multilabel flash lamp reader after addition of the first and second reagents. Data were normalized by calculating the ratio of the Firefly luminescence from the CRE reporter to the Renilla luminescence from the control Renilla Luciferase vector.
# [2] = biological target: T1, human recombinant NK2 receptors; assay: cell-based
# Experimental: (§2) Human recombinant NK2 and NK1 receptors were generated using stably transfected CHO cells (CHO-hNK2 and CHO-hNK1, respectively). Human NK2 or NK1 receptor expressing vectors from Genecopeia (Rockville, USA) were transfected in CHO cells using the standard FuGENE protocol and cells were selected using 450 μg/mL geneticin (G418). Clones expressing the receptors were selected by functional coupling to calcium using FLIPR and a single clone for each receptor subtype was selected for expansion and stable cell line generation. Cells were cultured in a humidified incubator with 5% CO2 in F12K medium containing 10% heat inactivated FBS and 450 μg/mL geneticin and passaged on reaching 80–90% confluence.
# (§3) The agonist efficacy of the test compounds at recombinant human NK1 or NK2 receptors expressed in CHO cells was assessed by measuring the intracellular calcium response using the calcium-sensitive dye Fluo-4 AM (Eugene, OR, USA) and a Fluorometric Imaging Plate Reader (FLIPR, Molecular Devices, CA, USA). CHO-hNK1 and CHO-hNK2 cells were seeded into black walled clear-bottom 384-well plates at a density of 10,000 and 15,000 cells per well in 50 μL culture media, respectively, and grown overnight at 37°C in a humidified CO2-incubator. Cells were washed in washing buffer using an EMBLA 384 plate washer, leaving 20 μL of buffer per well after the final aspiration. Cells were then incubated at 37°C with the cytoplasmic Ca^2+ indicator Fluo-4 AM (final concentration 1 μM) in assay buffer (20 mM HEPES, 145 mM NaCl, 5 mM KCl, 5.5 mM glucose, 1 mM MgCl2 and 2 mM CaCl2, pH 7.4, 0.05% Pluronic F-127 and 0.1% BSA) containing 2.5 mM probenecid for 45–60 min (cell loading). Cells were then washed 3 times in washing buffer (20 mM HEPES, 145 mM NaCl, 5 mM KCl, 5.5 mM glucose, 1 mM MgCl2 and 2 mM CaCl2, pH 7.4 and 2.5 mM probenecid) using an EMBLA 384 plate washer, leaving 30 μL of buffer in each well after the last wash. Loaded cell plates were transferred to the FLIPR and calcium responses were monitored as described below. […] Concentration response curves of test compounds were generated in duplicate on at least two different occasions from the same stock solutions. Test solutions were prepared from 10 mM stock solutions in DMSO and 1 μL of each solution was stamped into V-bottom assay plates containing 49 μL assay buffer. The final concentration of DMSO was 0.5% in each well.
# [3] = biological target: T4, human recombinant NK1 receptors; assay: cell-based
# Experimental: as §2, §3
# [4] = biological target: T1, human recombinant NK2 receptors; assay: cell-based; settings: for EC50: CHO-hNK2 cells
# Experimental: as §1
# [5] = biological target: T4, human recombinant NK1 receptors; assay: Displacement of [^3H]-Septide binding to CHO-hNK1 membranes (septide site)
# Experimental: Protein expression was induced by addition of 5 mM sodium butyrate to the culture medium. […] The cell suspension was collected, placed on ice and centrifuged for 5 min at 4°C and 1200 rpm in a Beckman GS6R centrifuge. After removal of the supernatant the cell pellet was washed and collected by re-suspension in PBS and centrifugation. The final pellet was weighed and frozen at -80°C until use. Frozen pellets were thawed and homogenized in 10 volumes (w/v) of membrane preparation buffer (50 mM HEPES pH 7.4, 1 mM EDTA, 50 μg/mL bacitracin and protease inhibitors) using a Polytron Ultraturrax (twice for 15 s per cycle). The homogenate was centrifuged for 20 min at 4°C and 18500 rpm in a SL-50T Sorvall rotor and the pellet was re-suspended in membrane preparation buffer and re-homogenized as before. After centrifugation for 20 min at 4°C and 18500 rpm, the pellets were re-suspended in 5 volumes of membrane preparation buffer and divided into aliquots before freezing at -80°C. Protein concentration was determined using BioRad Protein Assay (Milan, Italy) with a BSA standard curve. Stock solutions of test compounds (10 mM) were prepared in DMSO and stored at -20°C until use. […] The goodness of fit between One-Site and Two-Site models was examined using Akaike's Information Corrected Criteria (AICC; [23]) in SAS v9.4 (SAS Institute, Cary NC) in order to select the best model for the data generated. […] Data from displacement experiments were plotted as the log [inhibitor concentration] (X axis) versus response expressed as TB in cpm (Y axis).
# [6] = biological target: T1, human recombinant NK2 receptors; assay: Displacement of [^125I]-NKA binding to CHO-hNK2 membranes
# NK2 receptor = biological target: T2, NK2 receptor; assay: [125I]-NKA displacement
# NK1 receptor = biological target: T3, NK1 receptor; assay: [3H]-Septide displacement
# [7] = CHO-hNK1 cells, % of maximal response observed with substance P, mean ± SD
# [8] = Intracellular Ca^2+ pEC50, CHO-hNK2 cells, mean ± SD
# [9] = NK2 EC50 intracellular calcium response, CHO-hNK2 cells
# [10] = Intracellular Ca^2+ pEC50, CHO-hNK1 cells, mean ± SD
# [11] = NK1 EC50 intracellular calcium response, CHO-hNK1 cells
# [12] = CHO-hNK1 cells, mean ± SD, read-out: cAMP stimulation pEC50 (converted)
# [13] = CHO-hNK1 cells, read-out: NK1 EC50 cAMP stimulation
# [14] = mean ± SD, read-out: cAMP stimulation pEC50 (converted)
# [15] = read-out: NK2 EC50 cAMP stimulation
# [16] = 5.0 nM [^3H]-Septide, CHO-hNK1 membranes 20 μg/well, 23°C, 1 h, mean ± SD, read-out: [^3H]-Septide binding pKi (converted)
# [17] = displacement of [^3H]-Septide binding, read-out: NK1 [^3H]-Septide Ki
molecule,measurement,setting,value
"CSCC[C@H](NC(=O)[C@H](CC(C)C)NC(=O)CNC(=O)[C@@H](NC(=O)[C@H](Cc1ccccc1)NC(=O)[C@H](CO)NC(=O)[C@H](CC(=O)O)NC(=O)[C@@H](NC(=O)[C@H](CCCCN)NC(=O)[C@@H](N)Cc1c[nH]cn1)[C@@H](C)O)C(C)C)C(N)=O [NKA, reference compound]",cAMP stimulation % Max,[1]; [7],100.5 ± 13.6%
"CCCC[C@H](NC(=O)[C@H](CC(C)C)N(C)C(=O)CNC(=O)[C@@H](NC(=O)[C@H](Cc1ccccc1)NC(=O)[C@H](CCCCN)NC(=O)[C@@H](N)CC(=O)O)C(C)C)C(N)=O [[Lys^5,MeLeu^9,Nle^10]-NKA(4-10), Asp-Lys-Phe-Val-Gly-Leu(NMe)-Nle-NH2]",Intracellular Ca^2+ % Max,[2],101.4 ± 3.0%
same,EC50,[2]; [8],0.148 nM
same,EC50,[2]; [9],0.15 nM
same,Fold more selective than NKA for activation of NK2 over NK1 receptors (calcium),[2]; from EC50 ratios,approximately 100 fold
same,Intracellular Ca^2+ % Max,[3],107.6 ± 3.1%
same,EC50,[3]; [10],15.5 nM
same,EC50,[3]; [11],15.5 nM
same,cAMP stimulation % Max,[1],94.3 ± 21.6%
same,EC50,[1]; [12],1.78 nM
same,EC50,[1]; [13],1.78 nM
same,cAMP stimulation % Max,[4],107.4 ± 7.36%
same,EC50,[4]; [14],0.024 nM
same,EC50,[4]; [15],0.024 nM
same,Ki,[5]; [16],589 nM
same,Ki,[5]; [17],589 nM
same,Ki,"[6]; NK2 [^125I]-NKA Ki, displacement of [^125I]-NKA binding",0.87 nM
same,Ki,"[6]; [^125I]-NKA binding pKi, 0.1 nM [^125I]-NKA, CHO-hNK2 membranes 6 μg/well, 23°C, 3 h, mean ± SD",0.871 nM
same,Fold more selective for NK2 over septide site of NK1 receptor compared with NKA (binding),[6]; from Ki ratios,more than 28 fold
"CSCC[C@H](NC(=O)[C@H](CC(C)C)N(C)C(=O)CNC(=O)[C@@H](NC(=O)[C@H](Cc1ccccc1)NC(=O)[C@H](CCCCN)NC(=O)[C@@H](N)CC(=O)O)C(C)C)C(N)=O [[Lys^5,MeLeu^9]-NKA(4–10), Asp-Lys-Phe-Val-Gly-(NMe-Leu)-Met-NH2]",Intracellular Ca^2+ % Max,"[2]; CHO-hNK2 cells, % of maximal response observed with NKA, mean ± SD",88.2 ± 11.4%
same,EC50,[2]; [8],0.145 nM
same,NK1/NK2 ratio of EC50s for intracellular calcium response,[2]; NK1 EC50 / NK2 EC50,7
same,Intracellular Ca^2+ % Max,[3]; [7],106.7 ± 5.7%
same,Intracellular Ca^2+ pEC50,"[3]; CHO-hNK1 cells, mean ± SD",9.02 ± 0.39
same,[^3H]-Septide binding pKi,"[5]; 5.0 nM [^3H]-Septide, CHO-hNK1 membranes 20 μg/well, 23°C, 1 h, mean ± SD",7.30 ± 0.16
same,[^3H]-Septide binding Slope,"[5]; Hill slope of displacement curve, 5.0 nM [^3H]-Septide, 23°C, 1 h, mean ± SD",-0.89 ± 0.01
same,NK1/NK2 ratio of Ki values,[6],251
same,[^125I]-NKA binding Slope,[6],-0.84 ± 0.06
same,[^125I]-NKA binding pKi,[6],9.70 ± 0.16
"CSCC[C@H](NC(=O)[C@H](CC(C)C)NC(=O)CCNC(=O)[C@@H](NC(=O)[C@H](Cc1ccccc1)NC(=O)[C@H](CO)NC(=O)[C@@H](N)CC(=O)O)C(C)C)C(N)=O [[β-Ala^8]-NKA(4–10), Asp-Ser-Phe-Val-[β-Ala]-Leu-Met-NH2] (H-DSFV[βAla]LM-NH2)",Intracellular Ca^2+ % Max,[2],102.2 ± 7.4%
same,EC50,[2]; [8],0.871 nM
same,EC50,[2]; [9],0.86 nM
same,Intracellular Ca^2+ % Max,[3],106.0 ± 11.5%
same,EC50,[3]; [10],46.8 nM
same,EC50,[3]; [11],46.8 nM
same,cAMP stimulation % Max,[1],97.3 ± 24.8%
same,EC50,[1]; [12],5.62 nM
same,EC50,[1]; [13],5.62 nM
same,cAMP stimulation % Max,[4],84.6 ± 13.1%
same,EC50,[4]; [14],0.0234 nM
same,EC50,[4]; [15],0.023 nM
same,Ki,[5]; [16],2090 nM
same,Ki,[5]; [17],2090 nM
B1,Ki,NK2 receptor,2.3 nM
B2,Ki,NK2 receptor,0.12 nM
same,Ki,NK1 receptor,20.9 nM
B3,Ki,NK2 receptor,0.31 nM
same,Ki,NK1 receptor,8.3 nM
B4,Ki,NK2 receptor,0.2 nM
same,Ki,NK1 receptor,50.1 nM
